In patent US20100004248A1, “Use of a Nitric Oxide Synthase Modulator for the Treatment of Cardiac Indications” (priority 2005, published 2010):

Experiments:
NOS = experiment: Calcium dependent NOS activity, arginine to citrulline conversion, in myocardial homogenates of TAC hearts; assay type: in vivo, mouse; details: WT mice, TAC 3 weeks, oral co-treatment
Protocol: SDS-resistant NOS3 dimers and monomers were assayed using low-temperature SDS PAGE under reducing or non-reducing conditions, as described previously^7. NOS3 was immunoprecipitated as described^16 and the resulting samples added to fivefold Laemmli buffer (0.32 mol/l Tris-HCl, pH 6.8, 0.5 mol/l glycine, 10% SDS, 50% glycerol, and 0.03% bromophenol blue) in non-reducing gel (no 2-mercaptoethanol) to identify dimer dissociation due to reduced disulfide bridges. To provide fully denatured control lanes, samples were boiled for 15 minutes prior to loading. Electrophoresis was performed using Tris glycine 6% gels (Invitrogen Corp.), and gels and buffers maintained in an ice bath at 4° C. and stained (SimplyBlue, Invitrogen Corp.). Calcium dependent and independent NOS activity was determined from myocardial homogenates by [3H] L-arginine to [3H] citrulline conversion (Sigma-Aldrich) as described^16. An alternative approach involved more direct Western blot analysis without requiring initial NOS IP. Cold SDS-Page Western blot analysis was performed using a self-made […] SDS-Tris gel. After overnight running on ice, the gel was transferred for 3 h to nitrocellulose membrane. […] Bound antibodies were detected with horseradish peroxidase-conjugated anti-mouse IgG and visualize with an enhanced chemiluminescence detection system.

[1] = system: C57/BL6 WT mice subjected to TAC pressure overload; experiment: Transthoracic echocardiography in conscious TAC mice; assay type: in vivo, mouse; details: WT mice, TAC 3 weeks, oral co-treatment 1 mg/g food; mean ± sem
From the text: (§1) Male NOS3 null mice (NOS3^−/−) and C57/BL6 WT controls (8-11 weeks, Jackson Labs, Bar Harbor, Me., USA) were used. Pressure overload was produced by transverse aorta constriction (TAC). Briefly, The aortic arch was isolated by entering the extrapleural space between the second and third rib, and afterwards the transverse aorta was isolated between the right and left carotid arteries. A 7-0 prolene suture ligature was tied around the transverse aorta against a 27-gauge needle to produce a 65-70% constriction after the removal of the needle. After closing the chest, animals were extubated, and a subcutaneous injection of morphine sulphate 0.2 mg, was administered before they returned to their cages. Animal's ventilatory and circulatory status was checked every 30 minutes during the first 2 hours. Sham-operated mice underwent the same operation except for aortic constriction. […] Animals were randomized to receive placebo or BH4 (120 mg/kg/d) for the next 5 weeks. At the end of the study, i.e. at 9 weeks, animal were sacrificed to receive tissue or underwent in vivo PV-loop analysis. […] Control mice were subject to sham operations, and animals were studied 3-9 weeks following surgery. An additional group of wild-type animals were subjected to TAC for 3 weeks while co-treated with oral tetrahydrobiopterin (BH4) (Sigma-Aldrich) (1 mg/g food) mixed in their rodent chow, providing 5 mg/day based on 4-6 g daily diet^8.
(§2) Two different BH4 treatment protocols are used. For experiments related to FIGS. 1-7, where prevention of cardiac indications is described BH4 is provided orally as a treatment starting 2 days after TAC surgery (once mice are again eating oral diet). For those figures related to treatment of established cardiac indications, FIGS. 8-23, BH4 is provided orally but this is delayed for 4 weeks to establish substantial cardiac hypertrophy, remodeling, and NOS-uncoupling. Then the treatment is provided for the remaining 5 week period.
For folate studies, C57/BL6 WT were treated with folate (10 mg/kg/day) or with placebo for a 9 week period during which time the hearts were exposed to TAC.
In vivo cardiac morphology was assessed by transthoracic echocardiography (Acuson Sequoia C256, 13 MHz transducer, Siemens) in conscious mice. M-mode left ventricular (LV) end-systolic and end-diastolic dimensions were averaged from 3-5 beats. Left ventricular ejection fraction (LVEF) and percent fractional shortening (% FS) were calculated as: LVEF=[(LVEDD)^3-(LVESD)^3]/(LVEDD)^3×100; % FS=(LVEDD−LVESD)/LVEDD×100. Wall thickness of lateral freewall and intraventricular septum were averaged. Studies and analysis were performed blinded to heart condition.

[2] = system: C57/BL6 WT mice subjected to TAC pressure overload; experiment: In vivo hemodynamics, PV loop analysis, in TAC mice; design: species or system mouse; details: TAC 3 weeks
From the text: as §1, §2
In vivo left ventricular (LV) function was assessed by pressure-volume catheter^12,13. Mice were anesthetized with 1-2% isoflurane, urethane ([…], i.p.), etomidate (5-10 mg/kg, i.p.), and morphine (1-2 mg/kg, i.p.), underwent tracheostomy, and were ventilated with 6-7 μL/g tidal volume and 130 breaths/min. Volume expansion (12.5% human albumin, 50-100 μL over 5 min) was provided through a 30 G cannula via the right external jugular vein. The left ventricular apex was exposed through an incision between the 7-8th rib, and a catheter, specifically a 1.4 Fr PV catheter (SPR 839, Millar Instruments, Inc.), was advanced through the apex to lie along the longitudinal axis. Absolute volume was calibrated, and pressure-volume data was measured at steady state and during transient reduction of venous return as reported^13

reactive oxygen species = experiment: Reactive oxygen species generation in TAC myocardium (luminol, lucigenin, DHE, DCF); assay type: in vivo, mouse; details: WT mice, TAC 3 weeks, oral co-treatment
Protocol: Reactive oxygen species generation was examined by several independent methods. Superoxide production in left ventricular tissue homogenates was determined by luminol-enhanced chemiluminescence (EMD Biosciences). Flash frozen myocardium was homogenized in iced PBS buffer, centrifuged, and the precipitate re-suspended in assay buffer to a final concentration of 100 μM luminol following manufacturer's instructions. Phorbol-12-myristate-13-acetate or other oxidase stimulators were not used in the assay. Data were normalized by sample weight. In addition, fresh frozen left ventricular myocardium (8 μm slices) was incubated for 1 hour at 37° C. with florescent dyes 2′,7′-dichlorodihydro-fluorescein diacetate (DCF; Molecular Probes; 4 μM) (Invitrogen Corp.) reflecting hydrogen peroxide formation (DCF staining localizes principally to mitochondria within myocytes), dihydroethidium (DHE; Molecular Probes; 2 μM) which assesses O2^− formation (typically nuclear localization), and nitrotyrosine formation (polyclonal nitrotyrosine Ab, 1:100; Upstate), which can reflect formation of ONOO^−. Imaging was performed on a Zeiss inverted epifluorescence microscope attached to an argon-krypton laser confocal scanning microscope (UltraVIEW, Perkin Elmer Life Sciences, Inc.). […] Nitrotyrosine was also quantitatively assessed by ELISA assay (Oxis International).

[3] = oral co-treatment 1 mg/g food, mean ± sem

SMILES: Nc1nc2c(c(=O)[nH]1)NC(C(O)C(O)CO)CN2 (stereo not drawn) [H4N, tetrahydroneopterin]
- Ca^2+-dependent NOS activity (NOS): unaltered
- Fractional Shortening [1]: 33.8 ± 5.3%
- LV diameter Diastole [1]: 3.94 ± 0.19 mm
- LV diameter Systole [1]: 2.70 ± 0.31 mm
- Wall thickness [1]: 0.98 ± 0.03 mm
- functional or remodeling response to TAC ([2]; oral co-treatment): no effect
- Arterial Elastance [2, 3]: 11.4 ± 0.7 mmHg/μL
- Ejection Fraction [2, 3]: 43.4 ± 9.8%
- End-diastolic Volume [2, 3]: 38.8 ± 8.0 µL
- End-systolic Elastance [2, 3]: 41.0 ± 9.3 mmHg/μL · g
- End-systolic Volume [2, 3]: 24.0 ± 7.6 µL
- Heart RateR [2, 3]: 501.2 ± 28.5 min⁻¹
- LV Systolic Pressure [2, 3]: 177.8 ± 4.6 mmHg
- Peak Power Index [2, 3]: 31.8 ± 5.8 mmHg/s
- Tau [2, 3]: 5.5 ± 0.36 ms
- dPdtmn [2, 3]: −10725 ± 971.0 mmHg/s
- dPdtmx [2, 3]: 11154 ± 520 mmHg/s
- reactive oxygen species generation (luminol chemiluminescence, DHE, DCF) (reactive oxygen species): None of these changes were observed
